Data: US20070042937A1, “Inhibitors of 2-oxoglutarate dioxygenase as gamma globin inducers” (FibroGen, Inc., priority 2003, published 2007)
Like-named read-outs stand apart in the source and are kept apart here.

How the values were obtained:
[1] = system: CD34+ human bone marrow progenitor cells; settings: for increase in HbF synthesis compared to vehicle controls: added during EPO-dependent Phase II, FIG. 3A; for increase in HbF expression as assessed by MFI: compound alone, only during Phase II; for increase in HbF expression: CD34+ progenitor cell cultures, single assay, single cultures, FIG. 6; for increase in HbF expression over untreated controls: added to both Phases I and II
[2] = system: CD34+ human bone marrow progenitor cells; settings: FIG. 4B; for total hemoglobin in the cultures: compound alone
Method: Following phase I and II of the culture period, cells were harvested and approximately 1-2×10^5 cells were placed into round-bottom 96-well microtiter plates for each flow cytometry sample. The assay buffer for all washes and the diluent used for antibodies is PBS containing 0.1% BSA.
For HbF and Hb-specific immunolabeling, cells were pelleted by centrifugation at 1200 rpm for 2 minutes in a swinging bucket centrifuge (Beckman Coulter, Fullerton Calif.) with adaptors for microtiter plates, and the supernatant was aspirated. The cells were resuspended and lightly fixed in 100 ml of buffer containing 0.05% glutaraldehyde for 10 minutes, followed by addition of 100 ml of buffer and pelleting by centrifugation exactly as described above. The cells were washed two more times (for a total of 2.5 washes) before resuspension in buffer containing 1% Triton-X 100 for 5 min, to permeabilize the cells and enable penetration of antibodies. Following an additional 2.5 washes as described, cells were resuspended with 100 ml of buffer containing antibodies specific for HbF or the appropriate monoclonal isotype control (Caltag Laboratories, Burlingame Calif.), or total Hb and the matched polyclonal isotype control (BiosPacific, Emeryville Calif.).
The antibodies for HbF and isotype-matched control were directly conjugated to fluorochromes, so after antibody incubation the cells were washed as above before fixation in 1% formaldehyde, and stored at 4° C. in the dark until analysis. […] After an additional 2.5 washes, cells were fixed in 1% formaldehyde and stored at 4° C. in the dark until analysis.

[3] = system: CD34+ human bone marrow progenitor cells; assay: Percent HbF-positive cells (F-cells) in CD34+ bone marrow progenitor cell cultures by flow cytometry; settings: for increase in F-cells over untreated cultures / increase in F-cells over untreated cultures, in combination with HU: CD34+ cells, only during Phase II, FIG. 3B; for increase in F-cells over untreated cultures, in combination with HU: in combination with 5 μM HU
K562 cells = settings: 4 days, 20 μM, FIG. 2
γ-globin = γ-globin mRNA expression in K562 cells by quantitative PCR, normalized to 18S rRNA; format: cell-based, human; settings: FIG. 1A
Method: For studies utilizing the human erythroleukemia K562 cell line (ATCC), cells were grown and cultured in complete medium (RPMI 1640, 10% fetal calf serum (FCS), 100 U/ml penicillin and 0.1 mg/ml streptomycin) in a humidified incubator at 37° C., 95% air, 5% CO2-HPIs were titrated into duplicate cultures at dosage levels spanning more than 100-fold differences in concentration, and incubated from 24 to 96 hours prior to harvesting and quantitation of F-cells and HbF levels by flow cytometry.
Each PCR run included a standard curve and water blank. In addition, a melt curve was run after completion of each PCR run to assess the specificity of the amplification. γ-globin gene expression was normalized relative to the expression level of 18S ribosomal RNA for each sample.

SMILES: NC(=O)NO [HU, hydroxyurea, reference compound]
- increase in HbF synthesis compared to vehicle controls ([1]; CD34+ cells): 50%
- total hemoglobin in the cultures [2]: increases
- F-cells ([3]; CD34+ progenitor cells, compound alone, FIG. 4A): increases

SMILES: O=C(O)CNC(=O)c1ncc2cc(Br)ccc2c1O [HPI-2, [(7-Bromo-4-hydroxy-isoquinoline-3-carbonyl)-amino]-acetic acid]
- increase in HbF synthesis compared to negative control cultures (K562 cells): 77%
- increase in HbF expression over controls ([1]; CD34+ cells, added during both phases, concentration not given): 40%
- increase in HbF expression as assessed by MFI ([1]; CD34+ cells): 5%
- increase in HbF expression [1]: about 10%
- increase in F-cells over untreated cultures ([3]; compound alone): 12%
- increase in F-cells over untreated cultures, in combination with HU [3]: 29%

SMILES: COc1ccc2c(O)c(C(=O)NCC(=O)O)nc(Cl)c2c1 [HPI-3, [(1-Chloro-4-hydroxy-7-methoxy-isoquinoline-3-carbonyl)-amino]-acetic acid]
- increase in HbF expression [1]: about 10%

SMILES: O=C(O)CNC(=O)c1ncc2cc(Sc3ccccc3)ccc2c1O [HPI-6, [(4-Hydroxy-7-phenylsulfanyl-isoquinoline-3-carbonyl)-amino}-acetic acid]
- expression of the gene encoding γ-globin (γ-globin; 3 days, 0, 3, 4.5, 10, 12.5 or 20 μM): increased in a dose-dependant manner
- γ-globin expression with further addition of hydroxyurea (γ-globin; 3 days, plus 100 μM HU, especially at lower concentrations): augmented

SMILES: CCCC(=O)O [butyrate, reference compound]
- increase in HbF synthesis compared to vehicle controls ([1]; CD34+ cells): 85%

SMILES: O=C(O)CNC(=O)c1nc2cc(Cl)ccc2cc1O [HPI-4, [(7-Chloro-3-hydroxy-quinoline-2-carbonyl)-amino]-acetic acid]
- increase in HbF expression [1]: 56%

SMILES: O=C(O)CNC(=O)c1nc(Cl)c2ccccc2c1O [HPI-1, N-((1-chloro-4-hydroxy-isoquinoline-3-carbonyl)-amino)-acetic acid]
- increase in HbF synthesis compared to negative control cultures (K562 cells): 23-52%
- HbF expression (MFI for HbF) when used together with HU ([1]; 20 μM plus HU, FIG. 5B): additive
- HbF expression as measured by MFI for HbF, compared to vehicle control (DMSO) ([1]; 20 μM, triplicate, FIG. 5B): increased
- increase in HbF expression over untreated controls ([1]; CD34+ cells, 10 μM): 12%
- increase in HbF expression over untreated controls ([1]; CD34+ cells, 20 μM): 47%
- increase in HbF expression as assessed by MFI ([1]; CD34+ cells): 36%
- total hemoglobin, co-treatment with HU or butyrate ([2]; co-treatment with HPI-1 and HU or butyrate): no significant change
- total hemoglobin in the cultures [2]: did not cause a general increase
- HbF expression (percent F-cells) when used together with HU ([3]; 20 μM plus HU, FIG. 5A): additive
- HbF expression as measured by percent F-cells, compared to vehicle control (DMSO) ([3]; 20 μM, triplicate, FIG. 5A): increased
- increase in F-cells over untreated cultures ([3]; compound alone): 29%
- increase in F-cells over untreated cultures, in combination with HU [3]: 58%
- increase in F-cells ([3]; CD34+ progenitor cells, 20 μM, FIG. 4A): 50%
- F-cells, co-treatment with HU or butyrate ([3]; CD34+ progenitor cells, co-treatment with HPI-1 and HU or butyrate, FIG. 4A): additive increase

SMILES: CC(C)Oc1ccc2nc(C(=O)NCC(=O)O)c(O)cc2c1 [HPI-5, [(3-Hydroxy-6-isopropoxy-quinoline-2-carbonyl)-amino]-acetic acid]
- increase in HbF expression [1]: 75%
